Test results published in the NIST ThermoML archive (doi:10.1016/j.jct.2016.03.016).

Experiment: mn = molality of the nth substance listed, in mol/kg
Conditions: 100 kPa, Liquid; for speed of sound: Frequency=3 MHz, Sing-around technique in a fixed-path interferometer; for mass density: Vibrating tube method

CC(C)Cc1ccc(C(C)C(=O)[O-])cc1.[Na+] (stereo not given) [sodium ibuprofen] + O
Conditions | mass density, 288.15 K [kg/m3] | mass density, 293.15 K [kg/m3] | mass density, 298.15 K [kg/m3] | mass density, 303.15 K [kg/m3] | mass density, 308.15 K [kg/m3] | speed of sound, 288.15 K [m/s] | speed of sound, 293.15 K [m/s] | speed of sound, 298.15 K [m/s] | speed of sound, 303.15 K [m/s] | speed of sound, 308.15 K [m/s]
m1 = 0.05 | 1003.2 | 1002.24 | 1001.03 | 999.585 | 997.921 | 1477.5 | 1492.8 | 1506 | 1517.7 | 1527.8
m1 = 0.15 | 1007.46 | 1006.39 | 1005.07 | 1003.52 | 1001.77 | 1496.9 | 1510.7 | 1522.9 | 1533.4 | 1542.4
m1 = 0.25 | 1010.79 | 1009.6 | 1008.17 | 1006.53 | 1004.69 | 1510.2 | 1522.3 | 1533.1 | 1542.4 | 1550.3
m1 = 0.35 | 1015.17 | 1013.83 | 1012.29 | 1010.55 | 1008.62 | 1518.1 | 1529.1 | 1538.9 | 1547.4 | 1554.5
